Assay results taken from patent US20060069132A1, “Azolecarboxamide herbicides” (priority 2004, published 2006).

Experiments:
[1] = tested on: eastern black nightshade; assay: Test C pre-/postemergence herbicide test; format: in vivo, Solanum ptycanthum
How it was run: (§1)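 Pre- and postemergence application, solvent/surfactant formulation; post at 1- to 4-leaf stage (2–18 cm). Greenhouse 12–14 d. Visual rating vs controls, 0 = no effect, 100 = complete control.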

[2] = tested on: wheat; assay: Test B postemergence herbicide test; format: in vivo, Triticum aestivum; parameters: key to Wheat plant response rating: 0 = no effect, 100 = complete control
How it was run: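 Visual ratings, 0 (no effect) to 100 (complete control), made versus controls after 13–15 d greenhouse. Paddy plants treated at 2-leaf stage; postemergence plants at 1- to 4-leaf stage, 2–18 cm tall.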

[3] = tested on: Surinam grass; assay: Test C pre-/postemergence herbicide test; format: in vivo, Urochloa decumbens
How it was run: as §1

[4] = tested on: goosegrass; assay: Test C pre-/postemergence herbicide test; format: in vivo, Eleusine indica
How it was run: as §1

[5] = tested on: common ragweed; assay: Test C pre-/postemergence herbicide test; format: in vivo, Ambrosia elatior; parameters: key to Plant response rating, Ragweed: 0 = no effect, 100 = complete control
How it was run: as §1

[6] = tested on: Surinam grass; assay: Test B pre-/postemergence herbicide test; format: in vivo, Urochloa decumbens; conditions: for Surinam Grass plant response rating (0 to 100 scale) / Plant response rating, Surinam Grass / Plant response rating (0 to 100 scale), Surinam Grass: preemergence; for Plant response rating (0 to 100 scale), Surinam Grass: 0 is no effect
How it was run: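 Evaluation is visual, comparing treated with control plants on a scale where 0 means no effect and 100 means full control. Treatments were preemergence, or postemergence on seedlings 2–18 cm tall, and held 13–15 days in the greenhouse.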

[7] = 62 g ai/ha, preemergence, scale 0 to 100
[8] = 125 g ai/ha, scale 0 (no effect) to 100 (complete control), visual, 12 to 14 days, preemergence
[9] = 250 g ai/ha, scale 0-100, preemergence
[10] = 500 g ai/ha, scale 0 to 100 (0 no effect, 100 complete control), visual, 12 to 14 days, preemergence
[11] = postemergence, 125 g ai/ha, visual rating, scale 0 (no effect) to 100 (complete control)
[12] = postemergence, 500 g ai/ha, scale 0 to 100, 0 is no effect, 100 is complete control
[13] = 125 g ai/ha, 0 = no effect, 100 = complete control
[14] = 500 g ai/ha, visual rating, 0 = no effect, 100 = complete control
[15] = 125 g ai/ha, visual rating, scale 0 (no effect) to 100 (complete control), postemergence
[16] = Postemergence, 500 g ai/ha, scale 0 to 100
[17] = Postemergence, 250 g ai/ha, scale 0 to 100, 0 no effect, 100 complete control
[18] = postemergence, 125 g ai/ha, scale 0 to 100
[19] = postemergence, 62 g ai/ha, scale 0 to 100
[20] = 125 g ai/ha, 100 is complete control
[21] = 500 g ai/ha, scale 0 to 100, 0 no effect, 100 complete control, preemergence
[22] = Postemergence, 500 g ai/ha, scale 0 (no effect) to 100 (complete control)

SMILES | Plant response rating, Nightshade [1, 7] | Plant response rating, Nightshade [1, 8] | Plant response rating, Nightshade [1, 9] | Plant response rating, Nightshade [1, 10] | Wheat plant response rating [2, 12] | Plant response rating, Surinam Grass [3, 7] | Plant response rating, Surinam Grass [3, 9] | Plant response rating, Surinam Grass [3, 10] | Plant response rating, Goosegrass [4, 7] | Plant response rating, Goosegrass [4, 8] | Plant response rating, Goosegrass [4, 9] | Plant response rating, Goosegrass [4, 10] | Plant response rating, Ragweed [5, 7] | Plant response rating, Ragweed [5, 9] | Plant response rating, Ragweed [5, 10] | Plant response rating, Surinam Grass [6, 14] | Surinam Grass plant response rating [6, 12] | Wheat plant response rating [2, 15] | Surinam Grass plant response rating [6, 15] | Plant response rating (0 to 100 scale), Surinam Grass [6, 20] | further results
CCn1nc(C(C)(C)C)cc1C(=O)Nc1cc(C(=O)N2CCCC2)ccc1F [Compound 242] | 100 | 100 | 100 | 100 | 10 | 85 | 95 | 100 | 100 | 100 | 100 | 100 | 95 | 100 | 100 | 90 | 60 |  |  |  | Wheat plant response rating [2, 11]: 10; Surinam Grass plant response rating (0 to 100 scale) [6, 13]: 70; Surinam Grass plant response rating [6, 11]: 30
CCn1nc(C2(C)CC2)cc1C(=O)Nc1cccc(C(=O)N2CC=CC2)c1 [Compound 304] | 80 | 100 | 100 | 100 | 20 | 0 | 40 | 85 | 45 | 85 | 90 | 100 | 0 | 70 | 70 | 70 | 10 | 10 | 0 |  | Surinam Grass plant response rating (0 to 100 scale) [6, 13]: 10
CCn1nc(C(C)(C)C)cc1C(=O)Nc1cccc(OC(F)(F)C(F)F)c1 [Compound 333] |  | 20 | 98 | 100 | 30 |  | 5 | 20 | 0 | 30 | 85 | 100 | 0 | 50 | 65 | 20 | 30 | 20 | 20 | 10 | Surinam Grass plant response rating [3, 16]: 10; Plant response rating, Surinam Grass [3, 17]: 5; Plant response rating, Surinam Grass [3, 18]: 5; Plant response rating, Surinam Grass [3, 19]: 5; Goosegrass plant response rating [4, 16]: 15; Plant response rating, Goosegrass [4, 17]: 10; Plant response rating, Goosegrass [4, 18]: 10; Plant response rating, Goosegrass [4, 19]: 5; Ragweed plant response rating [5, 16]: 50; Plant response rating, Ragweed [5, 17]: 50; Plant response rating, Ragweed [5, 18]: 30; Plant response rating, Ragweed [5, 19]: 5
CCNC(=O)c1ccc(F)c(NC(=O)C2CN(C(C)(C)C)N=C2CC)c1 (centres unmarked) [Compound 336, 1-(1,1-dimethylethyl)-3-ethyl-N-[5-[(ethylamino)carbonyl]-2-fluorophenyl]-4,5-dihydro-1H-pyrazole-4-carboxamide] |  |  |  |  |  |  |  |  |  |  |  |  |  |  |  |  |  |  |  | 90 | pest or weed control at 62 g/ha ([1]; pre-emergence, 62 g ai/ha, preemergence, scale 0 to 100, read-out: Plant response rating, Nightshade): 85%; pest or weed control at 125 g/ha ([1]; pre-emergence, 125 g ai/ha, scale 0 (no effect) to 100 (complete control), visual, 12 to 14 days, read-out: Plant response rating, Nightshade): 95%; pest or weed control at 250 g/ha ([1]; pre-emergence, 250 g ai/ha, scale 0-100, read-out: Plant response rating, Nightshade): 100%; pest or weed control at 500 g/ha ([1]; pre-emergence, 500 g ai/ha, scale 0 to 100 (0 no effect, 100 complete control), visual, 12 to 14 days, read-out: Plant response rating, Nightshade): 100%; plant injury at 125 g/ha ([2]; Triticum aestivum, post-emergence, 336 h, 125 g ai/ha, visual rating, scale 0 (no effect) to 100 (complete control), read-out: Wheat plant response rating): 0%; plant injury at 500 g/ha ([2]; Triticum aestivum, post-emergence, 336 h, postemergence, 500 g ai/ha, scale 0 to 100, 0 is no effect, 100 is complete control, read-out: Wheat plant response rating): 10%; pest or weed control at 62 g/ha ([3]; Urochloa decumbens, pre-emergence, 312 h, 62 g ai/ha, preemergence, scale 0 to 100, read-out: Plant response rating, Surinam Grass): 50%; pest or weed control at 250 g/ha ([3]; Urochloa decumbens, pre-emergence, 312 h, 250 g ai/ha, scale 0-100, read-out: Plant response rating, Surinam Grass): 100%; pest or weed control at 500 g/ha ([3]; Urochloa decumbens, pre-emergence, 312 h, 500 g ai/ha, scale 0 to 100 (0 no effect, 100 complete control), visual, 12 to 14 days, read-out: Plant response rating, Surinam Grass): 100%; pest or weed control at 62 g/ha ([4]; Eleusine indica, pre-emergence, 312 h, 62 g ai/ha, preemergence, scale 0 to 100, read-out: Plant response rating, Goosegrass): 95%; pest or weed control at 125 g/ha ([4]; Eleusine indica, pre-emergence, 312 h, 125 g ai/ha, scale 0 (no effect) to 100 (complete control), visual, 12 to 14 days, read-out: Plant response rating, Goosegrass): 100%; pest or weed control at 250 g/ha ([4]; Eleusine indica, pre-emergence, 312 h, 250 g ai/ha, scale 0-100, read-out: Plant response rating, Goosegrass): 100%; pest or weed control at 500 g/ha ([4]; Eleusine indica, pre-emergence, 312 h, 500 g ai/ha, scale 0 to 100 (0 no effect, 100 complete control), visual, 12 to 14 days, read-out: Plant response rating, Goosegrass): 100%; pest or weed control at 62 g/ha ([5]; Ambrosia artemisiifolia, pre-emergence, 62 g ai/ha, preemergence, scale 0 to 100, read-out: Plant response rating, Ragweed): 30%; pest or weed control at 250 g/ha ([5]; Ambrosia artemisiifolia, pre-emergence, 250 g ai/ha, scale 0-100, read-out: Plant response rating, Ragweed): 80%; pest or weed control at 500 g/ha ([5]; Ambrosia artemisiifolia, pre-emergence, 500 g ai/ha, scale 0 to 100 (0 no effect, 100 complete control), visual, 12 to 14 days, read-out: Plant response rating, Ragweed): 100%; pest or weed control at 125 g/ha ([6]; Urochloa decumbens, post-emergence, 125 g ai/ha, visual rating, scale 0 (no effect) to 100 (complete control), read-out: Surinam Grass plant response rating): 20%; pest or weed control at 500 g/ha ([6]; Urochloa decumbens, post-emergence, postemergence, 500 g ai/ha, scale 0 to 100, 0 is no effect, 100 is complete control, read-out: Surinam Grass plant response rating): 20%; pest or weed control at 500 g/ha ([6]; Urochloa decumbens, pre-emergence, 500 g ai/ha, visual rating, 0 = no effect, 100 = complete control, read-out: Plant response rating, Surinam Grass): 100%
CCc1nn(C(C)(C)CC)nc1C(=O)Nc1cccc(C(=O)N(C)C)c1 [Compound 372] | 85 |  | 100 | 100 |  | 50 | 85 | 100 | 70 |  | 90 | 90 | 70 | 100 | 100 |  |  | 0 | 10 | 50 | Plant response rating (0 = no effect, 100 = complete control), Nightshade ([1]; 125 g ai/ha, preemergence): 95; Wheat plant response rating [2, 21]: 90; Wheat plant response rating [2, 22]: 10; Plant response rating (0 = no effect, 100 = complete control), Surinam Grass ([3]; 125 g ai/ha, preemergence): 85; Plant response rating (0 = no effect, 100 = complete control), Goosegrass ([4]; 125 g ai/ha, preemergence): 80; Plant response rating (0 = no effect, 100 = complete control), Ragweed ([5]; 125 g ai/ha, preemergence): 90; Surinam Grass plant response rating [6, 22]: 10
CCNC(=O)c1cccc(NC(=O)c2nn(C(C)(C)CC)nc2CC)c1 [Compound 376] | 95 |  | 100 | 100 |  | 40 | 90 | 100 | 80 |  | 100 | 100 | 0 | 50 | 50 |  |  | 10 | 10 | 40 | Plant response rating (0 = no effect, 100 = complete control), Nightshade ([1]; 125 g ai/ha, preemergence): 100; Wheat plant response rating [2, 21]: 90; Wheat plant response rating [2, 22]: 20; Plant response rating (0 = no effect, 100 = complete control), Surinam Grass ([3]; 125 g ai/ha, preemergence): 60; Plant response rating (0 = no effect, 100 = complete control), Goosegrass ([4]; 125 g ai/ha, preemergence): 100; Plant response rating (0 = no effect, 100 = complete control), Ragweed ([5]; 125 g ai/ha, preemergence): 0; Surinam Grass plant response rating [6, 22]: 20
